For 37 compounds, EC50 and IC50 results are on record in patent publication US12559474B2, “Triazine derivatives having virus replication inhibitory activity and pharmaceutical composition comprising the same” (priority 2021, dated 2026).

The term EC50 denotes the concentration giving half of the maximal effect. As usually defined, the IC50 is the point on the concentration scale where inhibition reaches its midpoint.

One test has as its system SARS-CoV-2. Description: microbe, parasite or virus in culture. It is filed as cell-based. Particulars: Severe acute respiratory syndrome coronavirus 2, VeroE6/TMPRSS2, 72 h, 50% SARS-CoV-2 infected cell death inhibitory concentration, VeroE6/TMPRSS2 cells, 3 days culture.
For the next test, the target named is SARS-CoV-2 3CL protease (Severe acute respiratory syndrome coronavirus 2, UniProt P0DTD1). Description: biochemical. The settings on record: 50% SARS-CoV-2 3CL protease inhibitory concentration, read-out: IC50.

The structures appear in SMILES notation. Read-outs that look alike come from different tables or passages of the source. A value given as a limit tells only on which side of the number the result lay.

Regarding `Cc1cncc(-n2c(=O)nc(Nc3cc4cn(C)nc4cc3Cl)n(Cc3cc(F)c(F)cc3Cc3cccc(CO)c3)c2=O)c1` [II-0025], in the test with SARS-CoV-2 (class symbols), the EC50 came to 8000 nM. Besides, the IC50 on SARS-CoV-2 3CL protease (given as class symbols) was less than 100 nM.
In the test on SARS-CoV-2 (class symbols), `COc1cc(F)c(F)cc1Cn1c(Nc2cc3cn(C)nc3cc2Cl)nc(=O)n(-c2cncc(C)c2)c1=O` [II-0520] yielded an EC50 of 1000 to 10000 nM. On SARS-CoV-2 3CL protease (given as class symbols), the half-inhibitory concentration (IC50) was less than 100 nM.
The corresponding values for `Cc1cncc(-n2c(=O)nc(Nc3cc4cn(C)nc4cc3Cl)n(Cc3ccc(F)c(Cl)c3)c2=O)c1` [II-0442] are less than 1000 nM and less than 100 nM.
Consider `Cc1cncc(-n2c(=O)nc(Nc3cc4cn(C)nc4cc3Cl)n(Cc3cc(C#N)c(F)cc3Cc3cccc(Cl)c3)c2=O)c1` [II-0434], for which the EC50 in the test on SARS-CoV-2 (class symbols) is less than 1000 nM. Moreover, the IC50 on SARS-CoV-2 3CL protease (given as class symbols) was less than 100 nM.
The compound `Cc1cncc(-n2c(=O)nc(Nc3cc4cn(C)nc4cc3Cl)n(Cc3cc(Cl)c(F)cn3)c2=O)c1` [II-0541] returned an EC50 in the test with SARS-CoV-2 (class symbols) of less than 1000 nM. Moreover, the concentration for half-maximal inhibition (IC50) on SARS-CoV-2 3CL protease (given as class symbols) was less than 100 nM.
In turn, `Cc1cncc(-n2c(=O)nc(Nc3cc4ccnn4cc3Cl)n(Cc3ccc(F)c(C#N)c3)c2=O)c1` [II-0477] returned a concentration for a half-maximal effect (EC50) with SARS-CoV-2 (class symbols) of 1000 to 10000 nM. Besides, the concentration for half-maximal inhibition (IC50) at SARS-CoV-2 3CL protease (given as class symbols) was less than 100 nM.
The matching figures for `COc1ccc(Nc2nc(=O)n(-c3cncc(C)c3)c(=O)n2Cc2ccc(F)c(C#N)c2)c(C)c1` [II-0162]: less than 1000 nM and less than 100 nM.
`Cn1ccc(-c2ccnc(Cn3c(=O)nc(Nc4cc5cn(C)nc5cc4Cl)n(Cc4cc(F)c(F)cc4F)c3=O)n2)n1` [II-0250] returned an EC50 with SARS-CoV-2 (class symbols) of 1000 to 10000 nM. In addition, the concentration for half-maximal inhibition (IC50) at SARS-CoV-2 3CL protease (given as class symbols) was less than 100 nM.
The corresponding values for `Cn1cnc(Cn2c(=O)cc(Nc3cc4cn(C)nc4cc3Cl)n(Cc3cc(F)c(F)c(F)c3)c2=O)n1` [II-0430] are 1000 to 10000 nM and less than 100 nM.
In the case of `Cn1nc2cc(Cl)c(Nc3nc(=O)n(Cc4cccnc4O)c(=O)n3Cc3cc(F)c(F)c(F)c3)cc2c1CCCO` [Compound I-0364], the EC50 with SARS-CoV-2 (class symbols) lay within 1000 to 10000 nM. Besides, on SARS-CoV-2 3CL protease (given as class symbols), the IC50 was less than 100 nM.
The matching figures for `COc1ccc(Nc2nc(=O)n(Cc3ccc[nH]c3=O)c(=O)n2Cc2cc(Cl)ccc2F)cc1` [Compound I-0231]: 1000 to 10000 nM and less than 100 nM.
As for `N#Cc1cc(Cn2c(Nc3cc4c(cc3Cl)OCC4)nc(=O)n(Cc3ccc[nH]c3=O)c2=O)cc(F)c1F` [Compound I-0011], the concentration for a half-maximal effect (EC50) with SARS-CoV-2 (class symbols) was less than 1000 nM. Also, the IC50 on SARS-CoV-2 3CL protease (given as class symbols) is less than 100 nM.
The corresponding values for `CNc1nc2cc(Cl)c(Nc3nc(=O)n(Cc4ncn(C)n4)c(=O)n3Cc3cc(F)c(F)c(Cl)c3)cc2s1` [II-0235] are 1000 to 10000 nM and less than 100 nM.
Take `CNc1nc2cc(Cl)c(Nc3nc(=O)n(-c4cncc(C)c4)c(=O)n3Cc3cc(C#N)c(F)cc3C)cc2o1` [II-0346]: the EC50 in the test with SARS-CoV-2 (class symbols) is less than 1000 nM. Moreover, the IC50 on SARS-CoV-2 3CL protease (given as class symbols) is less than 100 nM.
In the test on SARS-CoV-2 (class symbols), `Cn1cnc(Cn2c(=O)nc(Nc3cc4cn(C5CC5)nc4cc3Cl)n(Cc3cc(F)c(F)cc3F)c2=O)n1` [II-0527] returned an EC50 of less than 1000 nM. The IC50 on SARS-CoV-2 3CL protease (given as class symbols) was less than 100 nM.
`N#Cc1cc(Cn2c(Nc3ccc4c(c3)CCCO4)nc(=O)n(-c3cncc4ccccc34)c2=O)ccc1F` [II-0159]: the EC50 with SARS-CoV-2 (class symbols) is less than 1000 nM. Moreover, the IC50 at SARS-CoV-2 3CL protease (given as class symbols) was less than 100 nM.
Turning to `CNC(=O)Cn1cc2cc(Nc3nc(=O)n(-c4cncc(C)c4)c(=O)n3Cc3cc(F)c(F)c(F)c3)c(Cl)cc2n1` [II-0440], in the test on SARS-CoV-2 (class symbols), the EC50 was in the range of 1000 to 10000 nM. At SARS-CoV-2 3CL protease (given as class symbols), the IC50 was less than 100 nM.
The corresponding values for `CNC(=O)Cn1cc2cc(Nc3nc(=O)n(Cc4ccc[nH]c4=O)c(=O)n3Cc3cc(F)c(F)c(F)c3)c(Cl)cc2n1` [Compound I-0368] are 1000 to 10000 nM and less than 100 nM.
In the case of `COc1cncc(-n2c(=O)nc(Nc3cc4cn(C)nc4cc3Cl)n(Cc3cc(F)c(F)c(F)c3)c2=O)c1` [II-0495], the EC50 in the test on SARS-CoV-2 (class symbols) is less than 1000 nM. Also, the IC50 at SARS-CoV-2 3CL protease (given as class symbols) is less than 100 nM.
The matching figures for `CNc1nc2ccc(Nc3nc(=O)n(-c4cncc(Cl)c4)c(=O)n3Cc3cc(C#N)ccc3C)cc2s1` [II-0383]: less than 1000 nM and less than 100 nM.
Compound `Cn1cnc(Cn2c(=O)nc(Nc3cc4cn(C)nc4cc3Cl)n(Cc3cc(Cl)ccc3Cl)c2=O)n1` [II-0591] registered a concentration for a half-maximal effect (EC50) in the test on SARS-CoV-2 (class symbols) of less than 1000 nM. The IC50 on SARS-CoV-2 3CL protease (given as class symbols) was less than 100 nM.
Turning to `COc1ccc(Nc2nc(=O)n(-c3cncc4ccccc34)c(=O)n2Cc2cc(F)c(F)c(F)c2)c(Cl)c1` [Compound I-0152], the EC50 with SARS-CoV-2 (class symbols) was less than 1000 nM. Moreover, on SARS-CoV-2 3CL protease (given as class symbols), the IC50 was less than 100 nM.
Consider `Cn1cnc(Cn2c(=O)nc(Nc3cc4cccnc4cc3Cl)n(Cc3cc(F)c(F)cc3F)c2=O)n1` [II-0039], for which the EC50 in the test on SARS-CoV-2 (class symbols) fell in the range of 1000 to 10000 nM. For the same compound, the IC50 on SARS-CoV-2 3CL protease (given as class symbols) was less than 100 nM.
Consider `CC(=O)Nc1nc2cc(Cl)c(Nc3nc(=O)n(Cc4ncn(C)n4)c(=O)n3Cc3cc(Cl)c(F)cc3F)cc2s1` [II-0554], for which, in the test with SARS-CoV-2 (class symbols), the EC50 was in the range of 1000 to 10000 nM. Also, on SARS-CoV-2 3CL protease (given as class symbols), the half-maximal inhibitory concentration (IC50) was less than 100 nM.
In the case of `C[C@@H](O)Cn1cc2cc(Nc3nc(=O)n(Cc4cc(Cl)c[nH]c4=O)c(=O)n3Cc3cc(F)c(F)c(F)c3)c(Cl)cc2n1` [Compound I-0290], the EC50 in the test with SARS-CoV-2 (class symbols) lay in the range of 1000 to 10000 nM. The IC50 on SARS-CoV-2 3CL protease (given as class symbols) was less than 100 nM.
`COc1ccc(Nc2nc(=O)n(CC3CCN(C)C3)c(=O)n2Cc2cc(F)c(F)c(F)c2)cc1` (centres unmarked) [II-0259] showed a 50% effective concentration (EC50) in the test on SARS-CoV-2 (CellTiter-Glo 2.0) of 36300 nM. In addition, at SARS-CoV-2 3CL protease (RapidFire MS), the IC50 came out at 3400 nM.
Regarding `Cc1cncc(-n2c(=O)nc(Nc3cc4cn(C)nc4cc3Cl)n(Cc3ccc(F)c(C#N)c3C)c2=O)c1` [II-0020], in the test on SARS-CoV-2 (class symbols), the EC50 lay within 1000 to 10000 nM. In addition, the IC50 at SARS-CoV-2 3CL protease (given as class symbols) was less than 100 nM.
Compound `O=c1[nH]cccc1Cn1c(=O)nc(Nc2cc3cn(CCCOC(F)(F)F)nc3cc2Cl)n(Cc2cc(F)c(F)c(F)c2)c1=O` [Compound I-0400] displayed an EC50 with SARS-CoV-2 (class symbols) of 1000 to 10000 nM. In addition, at SARS-CoV-2 3CL protease (given as class symbols), the IC50 was less than 100 nM.
The corresponding values for `O=C1CN=CC=C1Cn1c(=O)nc(Nc2cc3c(cc2Cl)OCCC3)n(Cc2cc(F)c(F)cc2F)c1=O` [II-0047] are less than 1000 nM and less than 100 nM.
Compound `O=c1[nH]cccc1Cn1c(=O)nc(NC23CC(Nc4ncc(F)cn4)(C2)C3)n(Cc2cc(F)c(F)c(F)c2)c1=O` [II-0460] yielded an EC50 in the test with SARS-CoV-2 (CellTiter-Glo 2.0) of 19000 nM. The half-inhibitory concentration (IC50) on SARS-CoV-2 3CL protease (RapidFire MS) came out at 22 nM.
Compound `Cc1cncc(-n2c(=O)nc(Nc3cc4cn(C)nc4cc3Cl)n(Cc3cc(C#N)c(F)cc3Cl)c2=O)c1` [II-0087] yielded an EC50 with SARS-CoV-2 (CellTiter-Glo 2.0) of 69 nM. In addition, the IC50 at SARS-CoV-2 3CL protease (RapidFire MS) came to 2.5 nM.
`CCc1cc(F)c(F)cc1Cn1c(Nc2cc3cn(C)nc3cc2Cl)nc(=O)n(-c2cncc(C)c2)c1=O` [II-0068]: the EC50 in the test on SARS-CoV-2 (class symbols) is less than 1000 nM. For the same compound, the IC50 on SARS-CoV-2 3CL protease (given as class symbols) is less than 100 nM.
`CNc1nc2cc(Cl)c(Nc3nc(=O)n(Cc4ncccn4)c(=O)n3Cc3cc(F)c(F)c(Cl)c3)cc2s1` [II-0297] registered an EC50 in the test with SARS-CoV-2 (class symbols) of 1000 to 10000 nM. Besides, the IC50 on SARS-CoV-2 3CL protease (given as class symbols) is less than 100 nM.
As to `Cn1cnc(Cn2c(=O)nc(Nc3cc4cn(C)nc4cc3Cl)n(Cc3cc(F)cc(F)c3F)c2=O)n1` [II-0189], the EC50 with SARS-CoV-2 (class symbols) fell in the range of 1000 to 10000 nM. In addition, on SARS-CoV-2 3CL protease (given as class symbols), the IC50 is less than 100 nM.
`CNc1nc2cc(Cl)c(Nc3nc(=O)n(-c4cncc(C)c4)c(=O)n3Cc3ccc(F)c(C#N)c3)cc2o1` [II-0512] had an EC50 with SARS-CoV-2 (class symbols) of 1000 to 10000 nM. In addition, the IC50 at SARS-CoV-2 3CL protease (given as class symbols) is less than 100 nM.
`Cn1cnc(Cn2c(=O)nc(Nc3cc4cn(CC(F)F)nc4cc3Cl)n(Cc3cc(Cl)c(F)cc3F)c2=O)n1` [II-0569]: the midpoint of the response in the test on SARS-CoV-2 (CellTiter-Glo 2.0), the EC50, lay at 419 nM. At SARS-CoV-2 3CL protease (RapidFire MS), the IC50 was found to be 4.2 nM.
Regarding `CC(C)(O)Cn1cc2cc(Nc3nc(=O)n(Cc4ncccn4)c(=O)n3Cc3cc(Cl)c(F)cc3F)c(Cl)cc2n1` [II-0240], the EC50 in the test on SARS-CoV-2 (class symbols) is 1000 to 10000 nM. Also, at SARS-CoV-2 3CL protease (given as class symbols), the IC50 was less than 100 nM.
